Assay results taken from PubChem BioAssay AID330 (DTP/NCI, 2004).
Where “and” joins values, the source holds several entries; their conditions need not be identical. Identical values can stand only once. Inconclusive results and toxic doses are left out. The calls were made as follows: active = survival T/C of 150% or more; inactive = T/C below 125% in these data.

System: P388 leukemia ip, CD2F1 mice, survival T/C
Experiment: NCI In Vivo Anticancer Drug Screen. Data for tumor model P388 Leukemia (intraperitoneal) in CD2F1 (CDF1) mice
Conditions: endpoint: median survival time, higher = longer survival
How it was run: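 Mice carrying the transplanted tumor received test compound or vehicle. Survival was recorded in each group, and the value is the treated-group measurement divided by that of the vehicle-treated control group.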

[1] = dose: 100.0 mg/kg/injection, schedule: Q04DX003 (ip), vehicle: saline
[2] = dose: 50.0 mg/kg/injection, schedule: Q01DX009 (ip), vehicle: Klucel (hydroxypropylcellulose) (HPC)
[3] = dose: 100.0 mg/kg/injection, schedule: Q01DX009 (ip), vehicle: Klucel (hydroxypropylcellulose) (HPC)
[4] = dose: 200.0 mg/kg/injection, schedule: Q01DX009 (ip), vehicle: Klucel (hydroxypropylcellulose) (HPC)

Measured: T/C

O=C1/C(=N\O)Cc2cc(Cl)ccc21
inactive: dose: 12.0 mg/kg/injection, schedule: Q01DX005 (ip), vehicle: Klucel (hydroxypropylcellulose) (HPC) 101 % of control | dose: 25.0 mg/kg/injection, schedule: Q01DX005 (ip), vehicle: Klucel (hydroxypropylcellulose) (HPC) 111 % of control | dose: 50.0 mg/kg/injection, schedule: Q01DX005 (ip), vehicle: Klucel (hydroxypropylcellulose) (HPC) 101 % of control and 97 % of control

CCOC(=O)C1=C(C)Oc2cc3c(cc2C1c1cc(OC)c(OC)c(OC)c1)OCO3 (centres undefined)
inactive: dose: 60.0 mg/kg/injection, schedule: Q01DX005 (ip), vehicle: saline with Tween-80 97 % of control | dose: 120.0 mg/kg/injection, schedule: Q01DX005 (ip), vehicle: saline with Tween-80 98 % of control | dose: 240.0 mg/kg/injection, schedule: Q01DX005 (ip), vehicle: saline with Tween-80 94 % of control

CC(/C=C/c1ccccc1)=N\NC(=S)Nc1ccc(Br)cc1
inactive: dose: 100.0 mg/kg/injection, schedule: Q04DX002 (ip), vehicle: Klucel (hydroxypropylcellulose) (HPC) 97 % of control

O=C(O)C(O)C(O)C1[O][Sb][O]C1C(=O)O (centres undefined)
inactive: dose: 12.5 mg/kg/injection, schedule: Q01DX005 (ip), vehicle: saline 110 % of control | dose: 50.0 mg/kg/injection, schedule: Q01DX005 (ip), vehicle: saline with Tween-80 100 % of control and 101 % of control and 94 % of control | dose: 100.0 mg/kg/injection, schedule: Q01DX005 (ip), vehicle: saline with Tween-80 100 % of control and 108 % of control and 109 % of control | dose: 200.0 mg/kg/injection, schedule: Q01DX005 (ip), vehicle: saline with Tween-80 111 % of control and 117 % of control | dose: 400.0 mg/kg/injection, schedule: Q01DX005 (ip), vehicle: saline with Tween-80 118 % of control and 120 % of control

CC(C)(C)CC(C)(C)c1ccc(OCCO)cc1
inactive: dose: 50.0 mg/kg/injection, schedule: Q04DX003 (ip), vehicle: saline 91 % of control | [1] 108 % of control

CC1CN=C(c2ccc(NC(=O)NCCCCCCCCCNC(=O)Nc3ccc(C4=NCC(C)N4)cc3)cc2)N1 (centres undefined)
inactive: dose: 12.5 mg/kg/injection, schedule: Q01DX005 (ip), vehicle: saline + Tween-80 + alcohol 106 % of control and 110 % of control | dose: 25.0 mg/kg/injection, schedule: Q01DX005 (ip), vehicle: saline + Tween-80 + alcohol 105 % of control and 118 % of control | dose: 50.0 mg/kg/injection, schedule: Q01DX005 (ip), vehicle: saline + Tween-80 + alcohol 110 % of control and 121 % of control | dose: 100.0 mg/kg/injection, schedule: Q01DX005 (ip), vehicle: saline + Tween-80 + alcohol 108 % of control

COC(=O)Nc1cn2ccc(C(Cl)=C(Cl)Cl)cc2n1
inactive: [2] 107 % of control and 109 % of control | [3] 117 % of control and 122 % of control | [4] 116 % of control

O=C1NC2(c3ccccc3)NC(=O)NC2(c2ccccc2)N1 (centres undefined)
inactive: dose: 50.0 mg/kg/injection, schedule: Q01DX009 (ip), vehicle: saline 99 % of control | dose: 100.0 mg/kg/injection, schedule: Q01DX009 (ip), vehicle: saline 93 % of control | dose: 100.0 mg/kg/injection, schedule: Q04DX003 (ip), vehicle: saline with Tween-80 100 % of control | [1] 94 % of control | dose: 200.0 mg/kg/injection, schedule: Q01DX009 (ip), vehicle: saline 96 % of control | dose: 200.0 mg/kg/injection, schedule: Q04DX003 (ip), vehicle: saline with Tween-80 100 % of control | dose: 200.0 mg/kg/injection, schedule: Q04DX003 (ip), vehicle: saline 94 % of control | dose: 400.0 mg/kg/injection, schedule: Q04DX003 (ip), vehicle: saline with Tween-80 86 % of control | dose: 400.0 mg/kg/injection, schedule: Q04DX003 (ip), vehicle: saline 92 % of control

CCCCCCCC/C=C\CCCCCCCCCCCC(=O)OC/C=C/COC(=O)c1ccccc1
inactive: [2] 100 % of control | [3] 95 % of control | [4] 100 % of control

Cc1cc(=O)c2c(C)nn(-c3ccccc3)c2[nH]1
inactive: dose: 15.0 mg/kg/injection, schedule: Q01DX005 (ip), vehicle: Klucel (hydroxypropylcellulose) (HPC) 98 % of control | dose: 30.0 mg/kg/injection, schedule: Q01DX005 (ip), vehicle: Klucel (hydroxypropylcellulose) (HPC) 100 % of control | dose: 60.0 mg/kg/injection, schedule: Q01DX005 (ip), vehicle: Klucel (hydroxypropylcellulose) (HPC) 94 % of control | dose: 240.0 mg/kg/injection, schedule: Q01DX005 (ip), vehicle: Klucel (hydroxypropylcellulose) (HPC) 93 % of control

COc1ccc(OC)c(CC(C)N)c1 (centres undefined)
inactive: dose: 60.0 mg/kg/injection, schedule: Q01DX005 (ip), vehicle: saline 98 % of control | dose: 120.0 mg/kg/injection, schedule: Q01DX005 (ip), vehicle: saline 93 % of control
